In the NIST ThermoML archive (doi:10.1021/je060271a):

Settings: Liquid, Vibrating tube method

CCCCC(=O)OCC(COC(=O)CCCC)(COC(=O)CCCC)COC(=O)CCCC [pentaerythritol tetrapentanoate]
Settings | mass density [kg/m3]
303.15 K, 32798 kPa | 1030.6
303.15 K, 32838 kPa | 1030.5
303.15 K, 32877 kPa | 1030.5
303.15 K, 32926 kPa | 1030.5
303.15 K, 32968 kPa | 1030.5
303.15 K, 33012 kPa | 1030.6
303.15 K, 33064 kPa | 1030.6
303.15 K, 33109 kPa | 1030.6
303.15 K, 33144 kPa | 1030.7
303.15 K, 33166 kPa | 1030.7
303.15 K, 33187 kPa | 1030.7
303.15 K, 33214 kPa | 1030.8
303.15 K, 33237 kPa | 1030.6
303.15 K, 33258 kPa | 1030.7
303.15 K, 33284 kPa | 1030.8
303.15 K, 33307 kPa | 1030.8
303.15 K, 33354 kPa | 1030.8
303.15 K, 33377 kPa | 1030.7
303.15 K, 33404 kPa | 1030.7
303.15 K, 33423 kPa | 1030.9
303.15 K, 33449 kPa | 1030.8
303.15 K, 33472 kPa | 1030.7
303.15 K, 33494 kPa | 1030.9
303.15 K, 33521 kPa | 1030.8
303.15 K, 33544 kPa | 1030.8
303.15 K, 33594 kPa | 1030.9
303.15 K, 33616 kPa | 1030.9
303.15 K, 33643 kPa | 1031
303.15 K, 33666 kPa | 1031
303.15 K, 33687 kPa | 1031
303.15 K, 33715 kPa | 1030.9
303.15 K, 33740 kPa | 1031
303.15 K, 33763 kPa | 1031
303.15 K, 33790 kPa | 1031.1
303.15 K, 33813 kPa | 1031
303.15 K, 33836 kPa | 1031
303.15 K, 33862 kPa | 1031
303.15 K, 33886 kPa | 1031.1
303.15 K, 33911 kPa | 1031
303.15 K, 33938 kPa | 1031.1
303.15 K, 33963 kPa | 1031
303.15 K, 33987 kPa | 1031.2
303.15 K, 34014 kPa | 1031.2
303.15 K, 34041 kPa | 1031.1
303.15 K, 34066 kPa | 1031.2
303.15 K, 34091 kPa | 1031.2
303.15 K, 34122 kPa | 1031.2
303.15 K, 34148 kPa | 1031.3
303.15 K, 34176 kPa | 1031.2
303.15 K, 34209 kPa | 1031.1
303.15 K, 34236 kPa | 1031.2
303.15 K, 34272 kPa | 1031.3
303.15 K, 34293 kPa | 1031.3
303.15 K, 34298 kPa | 1031.3
303.15 K, 34306 kPa | 1031.3
303.15 K, 34335 kPa | 1031.4
303.15 K, 34345 kPa | 1031.4
303.15 K, 34355 kPa | 1031.4
303.15 K, 34361 kPa | 1031.3
303.15 K, 34369 kPa | 1031.2
303.15 K, 34375 kPa | 1031.4
303.15 K, 34382 kPa | 1031.4
303.15 K, 34388 kPa | 1031.3
303.16 K, 663.45 kPa | 1011.3
303.16 K, 665.18 kPa | 1011.4
303.16 K, 666.06 kPa | 1011.3
303.16 K, 670.92 kPa | 1011.3
303.16 K, 671.95 kPa | 1011.3
303.16 K, 672.66 kPa | 1011.2
303.16 K, 673.71 kPa | 1011.2
303.16 K, 674.57 kPa | 1011.2
303.16 K, 683.79 kPa | 1011.3
303.16 K, 684.84 kPa | 1011.3
303.16 K, 687.26 kPa | 1011.2
303.16 K, 700.64 kPa | 1011.3
303.16 K, 702.03 kPa | 1011.2
303.16 K, 702.73 kPa | 1011.4
303.16 K, 732.61 kPa | 1011.3
303.16 K, 790.98 kPa | 1011.3
303.16 K, 792.36 kPa | 1011.4
